According to paper PMC10374108, “Structural and biochemical characterization of the key components of an auxin degradation operon from the rhizosphere bacterium Variovorax” (PLOS Biology, 2023):
Several values for one entry are separate records, joined by “and”; a condition that tells them apart may be missing. Identical values can stand only once. Like-named read-outs stand apart in the source and are kept apart here.

What was measured:
IadK2 = IadK2 (Variovorax paradoxus, UniProt T1X8R6); assay: ITC, auxins binding to IadK2
Sequence of IadK2 (T1X8R6 entry or part of it): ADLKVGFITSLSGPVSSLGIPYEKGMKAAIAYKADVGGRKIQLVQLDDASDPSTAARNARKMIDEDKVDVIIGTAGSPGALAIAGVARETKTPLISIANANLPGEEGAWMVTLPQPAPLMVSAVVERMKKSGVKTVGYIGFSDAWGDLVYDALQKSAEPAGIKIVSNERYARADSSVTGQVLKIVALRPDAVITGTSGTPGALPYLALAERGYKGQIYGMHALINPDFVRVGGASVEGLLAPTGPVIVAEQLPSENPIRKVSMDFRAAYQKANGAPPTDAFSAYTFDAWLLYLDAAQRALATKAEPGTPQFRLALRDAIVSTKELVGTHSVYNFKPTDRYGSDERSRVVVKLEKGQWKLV
Protocol: (§1) ITC experiments were performed using a MicroCal PEAQ-ITC system (Malvern). All the experiments were performed at […] in a buffer containing 25 mM Tris-HCl (pH 7.5) and 150 mM NaCl (unless otherwise stated). […] Data was analyzed using the MicroCal PEAQ-ITC analysis software. All the measurements were repeated at least 2 times.

IadK3 = IadK3 (Variovorax paradoxus, UniProt A0A0H2LZ84); assay: ITC, auxins binding to IadK3; set-up: species or system Variovorax paradoxus CL14
Sequence of IadK3 (A0A0H2LZ84 entry or part of it): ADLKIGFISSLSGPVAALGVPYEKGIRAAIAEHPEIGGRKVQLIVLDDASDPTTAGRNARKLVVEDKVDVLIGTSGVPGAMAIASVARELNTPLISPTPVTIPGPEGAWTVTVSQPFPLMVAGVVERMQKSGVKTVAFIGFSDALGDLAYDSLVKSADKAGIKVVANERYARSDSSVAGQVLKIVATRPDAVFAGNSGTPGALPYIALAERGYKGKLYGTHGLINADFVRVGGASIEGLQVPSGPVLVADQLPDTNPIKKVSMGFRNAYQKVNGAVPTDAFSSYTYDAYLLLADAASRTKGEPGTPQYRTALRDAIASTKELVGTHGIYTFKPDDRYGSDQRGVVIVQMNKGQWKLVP
Protocol: as §1

[1] = biological target: IadE (Variovorax paradoxus CL14); assay: cryo-EM structure; purified IadD/E complex with 20-fold molar excess of IAA, 2.6 Å (2.59 Å), C3 symmetry
[2] = tested on: IadD/E-IadC dioxygenase system; assay: In vitro IAA and analogs transformation assay, IadC + IadD/E; format: biochemical, Variovorax paradoxus CL14; details: normalised, replicates
Protocol: The reaction mixture was composed of 100 mM Tris-HCl (pH7.5), 250 μM reduced NADH, 10 μM ammonium iron (II) sulfate, and 3 μM of each enzyme component. […] The mixture was vortexed periodically to introduce oxygen for the reaction and was boiled to stop the reaction. After pelleting the precipitants, the supernatant was collected and mixed with 2 volumes of Salkowski reagent made of 0.5 M ferric chloride and 35% perchloric acid for the quantification of residual substrate by measuring the adsorption at 530 nm.

[3] = biological target: IadD (Variovorax paradoxus CL14); assay: cryo-EM structure; purified IadD/E complex with 20-fold molar excess of IAA, 2.6 Å (2.59 Å), C3 symmetry
[4] = biological target: IadE (Variovorax paradoxus CL14); assay: SEC; co-expressed IadD/E complex purified by cation exchange, 20 mg/ml, HiLoad 200 column, 25 mM Tris-HCl pH 7.5, 150 mM NaCl, 2 mM DTT; peak fractions on SDS-PAGE
[5] = ITC, single-phase isotherm, auxin analogs to IadK2, mean ± SEM, read-out: KD
[6] = IadK2, ITC, replicates, read-out: Kd

Row | Molecule | relative substrate level after reaction [2] | relative substrate level before reaction [2] | Kd (IadK2; [5]) [µM] | Kd (IadK2; [6]) | other results
1 | O=C(O)Cc1ccccc1 [PAA, phenylacetic acid] |  |  |  |  | binding to IadK2 (ITC) (IadK2; result in words): no binding; Kd (IadK3): > 100 µM; Kd (IadK3; read-out: ITC binding, IadK3, ITC, replicates): > 100 µM; binding to IadK3 (ITC) (IadK3; result in words): no binding detected
2 | IadE (enzyme) |  |  |  |  | stoichiometry N [1]: 3
3 | O=C(O)Cc1c[nH]c2ccc(O)cc12 [5-HIAA, 5-hydroxy indole-3-acetic acid] | 0.2661 and 0.2238 and 0.1936 | 1 and 1.014 and 0.9931 |  |  | 
4 | IadD (enzyme) |  |  |  |  | stoichiometry N [3]: 3; stoichiometry N (IadD:IadE molar ratio) [4]: 1
5 | O=C(O)Cc1cccc2ccccc12 [NAA, 1-naphthylacetic acid] |  |  | 17 ± 2.2 | 15 µM and 16 µM and 20 µM | 
6 | O=C(O)CCCc1c[nH]c2ccccc12 [IBA, indole-3-butyric acid] | 1.033 and 0.9962 and 0.976 | 1 and 1.003 and 0.9923 | 18 ± 7 | 28 µM and 11 µM and 16 µM | 
7 | O=C(O)Cc1c[nH]c2cccc(Cl)c12 [4-Cl-IAA, 4-chloroindole-3-acetic acid] | 0.2122 and 0.2346 and 0.1886 | 1 and 0.9732 and 0.9831 | 15.2 ± 6.8 | 7 µM and 23.8 µM and 15 µM | 
8 | O=C(O)CC1C(=O)Nc2ccccc21 (centres unmarked) [oxIAA, 2-oxindole-3-acetic acid] |  |  |  |  | association with IadK3 (IadK3; result in words, method not stated): weakly associate
9 | O=C(O)COc1ccc(Cl)cc1Cl [2,4-D, 2,4-dichlorophenoxyacetic acid] |  |  |  |  | Kd (IadK2; ITC, single-phase isotherm, auxin analogs to IadK2, mean ± SEM): > 100 µM; Kd (IadK2; IadK2, ITC, replicates): > 100 µM
10 | O=C(O)CCc1c[nH]c2ccccc12 [IPA, indole-3-propionic acid] | 0.9755 and 1.034 and 0.9864 | 1 and 1.004 and 1.006 | 1.4 ± 0.2 | 1.6 µM and 1.2 µM and 1.5 µM | 
